Data from US11820766B2, “Monoacylglycerol lipase modulators” (Janssen Pharmaceutica NV, priority 2018, dated 2023).
pIC50: −log10 of the molar value.

Biological target: T1, human MGL from HeLa cells (Homo sapiens, UniProt Q99685)
T1 construct: combining endogenously expressed MGL from HeLa cells with test compounds; endogenous in cells; host or cells: HeLa cells / cell homogenates
T1 sequence (Q99685 1-303): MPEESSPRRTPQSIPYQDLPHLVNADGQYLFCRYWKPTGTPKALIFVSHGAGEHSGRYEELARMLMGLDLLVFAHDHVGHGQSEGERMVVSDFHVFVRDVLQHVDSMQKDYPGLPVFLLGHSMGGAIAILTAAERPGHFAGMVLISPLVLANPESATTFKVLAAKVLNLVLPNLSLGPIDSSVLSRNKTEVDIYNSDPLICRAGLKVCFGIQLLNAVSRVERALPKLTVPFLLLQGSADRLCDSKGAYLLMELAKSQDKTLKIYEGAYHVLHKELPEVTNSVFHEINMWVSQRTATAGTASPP
Assay: In vitro MGL activity assay: [glycerol-1,3-3H]-oleyl glycerol cleavage by MGL from HeLa cells
Assay type: biochemical
Conditions: 300 nM [Glycerol-1,3-3H]-oleyl glycerol, one hour
Excerpt: MGL is the predominant hydrolase in HeLa cells/cell homogenates.

SMILES	pIC50
C[C@H]1c2nn(C)c(-c3cc(F)c(F)c(F)c3)c2CCN1C(=O)c1ccc2c(n1)COCC2 [Example 566, 6,8-Dihydro-5H-pyrano[3,4-b]pyridin-2-yl-[(7S)-2,7-dimethyl-3-(3,4,5-trifluorophenyl)-5,7-dihydro-4H-pyrazolo[3,4-c]pyridin-6-yl]methanone]	6.27
C[C@H]1c2nn(C)c(-c3cc(F)c(F)c(F)c3)c2CCN1C(=O)c1c(F)cnc2[nH]ccc12 [Example 369, [(7S)-2,7-Dimethyl-3-(3,4,5-trifluorophenyl)-5,7-dihydro-4H-pyrazolo[3,4-c]pyridin-6-yl]-(5-fluoro-1H-pyrrolo[2,3-b]pyridin-4-yl)methanone]	8.73
C[C@H]1c2nn(C)c(-c3cc(F)c(F)c(F)c3)c2CCN1C(=O)c1ccn2ccncc12 [Example 416, [(7S)-2,7-Dimethyl-3-(3,4,5-trifluorophenyl)-5,7-dihydro-4H-pyrazolo[3,4-c]pyridin-6-yl]-pyrrolo[1,2-a]pyrazin-8-yl-methanone]	8.14
C[C@H]1c2nn(C)c(-c3cc(F)c(F)c(F)c3)c2CCN1C(=O)c1cncc2ncccc12 [Example 489]	7.52
CCOc1ccc(-c2c3c(nn2C)[C@H](C)N(C(=O)c2ccc4ncccc4c2)CC3)cc1 [Example 497, [(7S)-3-(4-Ethoxyphenyl)-2,7-dimethyl-5,7-dihydro-4H-pyrazolo[3,4-c]pyridin-6-yl]-(6-quinolyl)methanone]	6.50
Cc1nc2c(C)cccn2c1C(=O)N1CCc2c(nn(C)c2-c2cc(F)c(F)c(F)c2)[C@@H]1C [Example 403, (2,8-Dimethylimidazo[1,2-a]pyridin-3-yl)-[(7S)-2,7-dimethyl-3-(3,4,5-trifluorophenyl)-5,7-dihydro-4H-pyrazolo[3,4-c]pyridin-6-yl]methanone]	7.36
C[C@H]1c2nn(C)c(-c3cc(F)c(F)c(F)c3)c2CCN1C(=O)c1ccn2ncc(F)c2c1 [Example 378, [(7S)-2,7-Dimethyl-3-(3,4,5-trifluorophenyl)-5,7-dihydro-4H-pyrazolo[3,4-c]pyridin-6-yl]-(3-fluoropyrazolo[1,5-a]pyridin-5-yl)methanone]	7.41
C[C@H]1c2nn(C)c(-c3cc(F)c(F)c(F)c3)c2CCN1C(=O)c1cnc2c(c1)CCCO2 [Example 563, 3,4-Dihydro-2H-pyrano[2,3-b]pyridin-6-yl-[(7S)-2,7-dimethyl-3-(3,4,5-trifluorophenyl)-5,7-dihydro-4H-pyrazolo[3,4-c]pyridin-6-yl]methanone]	6.48
C[C@H]1c2nn(C)c(-c3cccc(F)c3F)c2CCN1C(=O)c1ccc2ncccc2c1 [Example 503, [(7S)-3-(2,3-Difluorophenyl)-2,7-dimethyl-5,7-dihydro-4H-pyrazolo[3,4-c]pyridin-6-yl]-(6-quinolyl)methanone]	7.66
C[C@H]1c2nn(C)c(-c3cccc4ccoc34)c2CCN1C(=O)c1ccc2ncccc2c1 [Example 534, [(7S)-3-(Benzofuran-7-yl)-2,7-dimethyl-5,7-dihydro-4H-pyrazolo[3,4-c]pyridin-6-yl]-(6-quinolyl)methanone]	7.60

Now from value to compound:

pIC50	SMILES
7.60	Cc1nc2c(C)ccnn2c1C(=O)N1CCc2c(nn(C)c2-c2cc(F)c(F)c(F)c2)[C@@H]1C [Example 456, (2,8-Dimethylimidazo[1,2-b]pyridazin-3-yl)-[(7S)-2,7-dimethyl-3-(3,4,5-trifluorophenyl)-5,7-dihydro-4H-pyrazolo[3,4-c]pyridin-6-yl]methanone]
7.26	COc1ccccc1-c1c2c(nn1C)[C@H](C)N(C(=O)c1ccc3ncccc3c1)CC2 [Example 496, [(7S)-3-(2-Methoxyphenyl)-2,7-dimethyl-5,7-dihydro-4H-pyrazolo[3,4-c]pyridin-6-yl]-(6-quinolyl)methanone]
5.95	Cc1cc(-c2c3c(nn2C)[C@H](C)N(C(=O)c2ccc4ncccc4c2)CC3)ccn1 [Example 520, [(7S)-2,7-Dimethyl-3-(2-methyl-4-pyridyl)-5,7-dihydro-4H-pyrazolo[3,4-c]pyridin-6-yl]-(6-quinolyl)methanone]
7.17	Cc1nn(C)c2nccc(C(=O)N3CCc4c(nn(C)c4-c4cc(F)c(F)c(F)c4)[C@@H]3C)c12 [Example 425, (1,3-Dimethylpyrazolo[3,4-b]pyridin-4-yl)-[(7S)-2,7-dimethyl-3-(3,4,5-trifluorophenyl)-5,7-dihydro-4H-pyrazolo[3,4-c]pyridin-6-yl]methanone]
6.49	C[C@H]1c2nn(C)c(-c3cc(F)c(F)c(F)c3)c2CCN1C(=O)c1c(C(F)F)nc2n1CCCC2 [Example 561, [2-(Difluoromethyl)-5,6,7,8-tetrahydroimidazo[1,2-a]pyridin-3-yl]-[(7S)-2,7-dimethyl-3-(3,4,5-trifluorophenyl)-5,7-dihydro-4H-pyrazolo[3,4-c]pyridin-6-yl]methanone]
7.45	Cc1ccc2c(C(=O)N3CCc4c(nn(C)c4-c4cc(F)c(F)c(F)c4)[C@@H]3C)nccc2n1 [Example 487, [(7S)-2,7-Dimethyl-3-(3,4,5-trifluorophenyl)-5,7-dihydro-4H-pyrazolo[3,4-c]pyridin-6-yl]-(2-methyl-1,6-naphthyridin-5-yl)methanone]

Same assay, conditions: 300 nM [Glycerol-1,3-3H]-oleyl glycerol, one hour incubation

SMILES	pIC50
C[C@H]1c2nn(C)c(-c3cc(F)c(F)c(F)c3)c2CCN1C(=O)c1cccc(-n2cccn2)n1 [Example 320, [(7S)-2,7-Dimethyl-3-(3,4,5-trifluorophenyl)-5,7-dihydro-4H-pyrazolo[3,4-c]pyridin-6-yl]-(6-pyrazol-1-yl-2-pyridyl)methanone]	7.10
CC1c2nn(C)c(-c3cc(F)cc(F)c3)c2CCN1C(=O)c1cc2ccccc2cn1 (stereo not shown) [Example 160, (3-(3,5-Difluorophenyl)-2,7-dimethyl-2,4,5,7-tetrahydro-6H-pyrazolo[3,4-c]pyridin-6-yl)(isoquinolin-3-yl)methanone]	6.59
CC1c2nn(C)c(-c3cn(C)c4ccccc34)c2CCN1C(=O)c1ccc2ncccc2c1 (stereo not shown) [Example 251, (2,7-Dimethyl-3-(1-methyl-1H-indol-3-yl)-2,4,5,7-tetrahydro-6H-pyrazolo[3,4-c]pyridin-6-yl)(quinolin-6-yl)methanone]	5.72
COc1nccc(C(=O)N2CCc3c(nn(C)c3-c3cc(F)c(F)c(F)c3)[C@@H]2C)c1F [Example 315, [(7S)-2,7-Dimethyl-3-(3,4,5-trifluorophenyl)-5,7-dihydro-4H-pyrazolo[3,4-c]pyridin-6-yl]-(3-fluoro-2-methoxy-4-pyridyl)methanone]	7.37
C[C@H]1c2nn(C)c(-c3cccc(Cl)c3)c2CCN1C(=O)c1cccc2c1OCO2 [Example 123, (S)-Benzo[d][1,3]dioxol-4-yl(3-(3-chlorophenyl)-2,7-dimethyl-2,4,5,7-tetrahydro-6H-pyrazolo[3,4-c]pyridin-6-yl)methanone]	7.35
COc1cc(Cl)cc(C(=O)N2CCc3c(nn(C)c3-c3ccccc3)C2)c1 [Example 16, (3-Chloro-5-methoxyphenyl)(2-methyl-3-phenyl-2,4,5,7-tetrahydro-6H-pyrazolo[3,4-c]pyridin-6-yl)methanone]	7.11
C[C@H]1c2nn(C)c(-c3cccc(Cl)c3)c2CCN1C(=O)c1cc2ncccc2o1 [Example 129, (S)-(3-(3-Chlorophenyl)-2,7-dimethyl-2,4,5,7-tetrahydro-6H-pyrazolo[3,4-c]pyridin-6-yl)(furo[3,2-b]pyridin-2-yl)methanone]	7.33
Cn1nc2c(c1-c1ccccc1)CCN(C(=O)c1cncc3ccccc13)C2 [Example 87, Isoquinolin-4-yl(2-methyl-3-phenyl-2,4,5,7-tetrahydro-6H-pyrazolo[3,4-c]pyridin-6-yl)methanone]	7.40

Results, then the compound that gave them:

pIC50	SMILES
7.63	C[C@H]1c2nn(C)c(-c3cc(F)cc(F)c3)c2CCN1C(=O)c1ccc2ncccc2n1 [Example 170]
8.79	C[C@H]1c2nn(C)c(-c3cc(F)cc(F)c3)c2CCN1C(=O)c1ccnc2c1ccn2CCF [Example 152, (S)-(3-(3,5-Difluorophenyl)-2,7-dimethyl-2,4,5,7-tetrahydro-6H-pyrazolo[3,4-c]pyridin-6-yl)(1-(2-fluoroethyl)-1H-pyrrolo[2,3-b]pyridin-4-yl)methanone]
5.60	Cn1nc2c(c1-c1ccccc1)CCN(C(=O)c1ccn3nccc3c1)C2 [Example 73, (2-Methyl-3-phenyl-2,4,5,7-tetrahydro-6H-pyrazolo[3,4-c]pyridin-6-yl)(pyrazolo[1,5-a]pyridin-5-yl)methanone]
7.73	COc1cc(C(=O)N2CCc3c(nn(C)c3-c3cc(F)c(F)c(F)c3)[C@@H]2C)cc(-n2cnnc2)c1 [Example 298, [(7S)-2,7-Dimethyl-3-(3,4,5-trifluorophenyl)-5,7-dihydro-4H-pyrazolo[3,4-c]pyridin-6-yl]-[3-methoxy-5-(1,2,4-triazol-4-yl)phenyl]methanone]
8.17	COc1cc(Cl)cc(C(=O)N2CCc3c(nn(C)c3-c3cc(F)c(F)c(F)c3)[C@@H]2C)c1 [Example 192, (S)-(3-Chloro-5-methoxyphenyl)(2,7-dimethyl-3-(3,4,5-trifluorophenyl)-2,4,5,7-tetrahydro-6H-pyrazolo[3,4-c]pyridin-6-yl)methanone]
6.57	Cn1nc2c(c1-c1cccc(Cl)c1)CCN(C(=O)c1ccc3ncccc3c1)C2 [Example 99, (3-(3-Chlorophenyl)-2-methyl-2,4,5,7-tetrahydro-6H-pyrazolo[3,4-c]pyridin-6-yl)(quinolin-6-yl)methanone]
8.37	C[C@H]1c2nn(C)c(-c3cccc(Cl)c3)c2CCN1C(=O)c1ccc2nccnc2c1 (single isomer, unassigned) [Example 134]
